Measurements taken from the NIST ThermoML archive (doi:10.1016/j.jct.2008.10.008).
Where “and” joins values, the source holds several entries; their conditions need not be identical. Equal values may be shown once.

Key:
[1] = molar heat capacity at saturation pressure
[2] = Molar enthalpy of transition or fusion
[3] = for vapor or sublimation pressure: Inclined piston gauge

CC(C)(C)c1ccc(C(C)(C)C)cc1 [1,4-bis(1,1-dimethylethyl)benzene]
Settings | Triple point temperature [K] | molar heat capacity | vapor or sublimation pressure [kPa]
[1], 260 K, Crystal 2 | – | 280.44 J/K/mol | –
[1], 261.46 K, Crystal 2 | – | 282.02 J/K/mol | –
[1], 276.43 K, Crystal 2 | – | 298.62 J/K/mol | –
[1], 280 K, Crystal 2 | – | 302.57 J/K/mol | –
[1], 284.66 K, Crystal 2 | – | 307.57 J/K/mol | –
[1], 291.28 K, Crystal 2 | – | 315.23 J/K/mol | –
[1], 293.84 K, Crystal 2 | – | 318.28 J/K/mol | –
[1], 298.15 K, Crystal 2 | – | 323.15 J/K/mol | –
[1], 298.15 K, Liquid | – | 347.84 J/K/mol | –
[1], 300 K, Crystal 2 | – | 325.26 J/K/mol | –
[1], 300 K, Liquid | – | 349.41 J/K/mol | –
[1], 302.67 K, Crystal 2 | – | 328.3 J/K/mol | –
[1], 304.12 K, Crystal 2 | – | 330 J/K/mol | –
[1], 305.99 K, Crystal 2 | – | 332.26 J/K/mol | –
[1], 310 K, Liquid | – | 357.8 J/K/mol | –
[1], 315.02 K, Crystal 2 | – | 342.89 J/K/mol | –
[1], 320 K, Crystal 2 | – | 348.63 J/K/mol | –
[1], 320 K, Liquid | – | 366 J/K/mol | –
[1], 327.23 K, Crystal 2 | – | 357.27 J/K/mol | –
[1], 330 K, Liquid | – | 374.03 J/K/mol | –
[1], 339.27 K, Crystal 2 | – | 372.29 J/K/mol | –
[1], 340 K, Crystal 2 | – | 373.15 J/K/mol | –
[1], 340 K, Liquid | – | 381.92 J/K/mol | –
[1], 340.54 K, Crystal 2 | – | 373.89 J/K/mol | –
[1], 350 K, Liquid | – | 389.72 J/K/mol | –
[1], 350.73 K, Crystal 1 | – | 375.72 J/K/mol | –
[1], 350.73 K, Crystal 2 | – | 386.83 J/K/mol | –
[1], 350.78 K, Crystal 1 | – | 375.79 J/K/mol | –
[1], 350.78 K, Liquid | – | 390.31 J/K/mol | –
[1], 354.93 K, Liquid | – | 393.57 J/K/mol | –
[1], 356.83 K, Liquid | – | 395.01 J/K/mol | –
[1], 358.46 K, Liquid | – | 396.37 J/K/mol | –
[1], 358.5 K, Liquid | – | 396.23 J/K/mol and 396.2 J/K/mol | –
[1], 360 K, Liquid | – | 397.37 J/K/mol | –
[1], 363.7 K, Liquid | – | 400.3 J/K/mol | –
[1], 366.52 K, Liquid | – | 402.21 J/K/mol | –
[1], 374.01 K, Liquid | – | 407.95 J/K/mol | –
[1], 380 K, Liquid | – | 412.36 J/K/mol | –
[1], 380.16 K, Liquid | – | 412.53 J/K/mol | –
[1], 395.48 K, Liquid | – | 423.8 J/K/mol | –
[1], 398.2 K, Liquid | – | 425.82 J/K/mol | –
[1], 400 K, Liquid | – | 427.09 J/K/mol | –
[1], 416.83 K, Liquid | – | 439.37 J/K/mol | –
[1], 417.39 K, Liquid | – | 439.74 J/K/mol | –
[1], 420 K, Liquid | – | 441.61 J/K/mol | –
[1], 433.85 K, Liquid | – | 451.62 J/K/mol | –
[1], 435.24 K, Liquid | – | 452.59 J/K/mol | –
[1], 440 K, Liquid | – | 456.08 J/K/mol | –
[3], 319.99 K, Crystal 2 | – | – | 0.0214
[3], 329.99 K, Crystal 2 | – | – | 0.0543
[3], 339.98 K, Crystal 2 | – | – | 0.1315
[3], 349.98 K, Crystal 2 | – | – | 0.2996
[3], 354.98 K, Liquid | – | – | 0.4031
[3], 359.98 K, Liquid | – | – | 0.5294
[3], 369.98 K, Liquid | – | – | 0.8897
[3], 379.97 K, Liquid | – | – | 1.445
[3], 387.02 K, Liquid | – | – | 1.996
[3], 389.97 K, Liquid | – | – | 2.276
[3], 394.97 K, Liquid | – | – | 2.825
[3], Crystal, Adiabatic calorimetry | 350.78 | – | –

Settings | Molar enthalpy of transition or fusion, [2] [kJ/mol] | Triple point temperature, [3] [K]
Crystal 1 | 8.212 | –
Crystal 2 | 14.36 | 350.73
